# Where a SMILES comes first, the peptide text is derived from it. The star is where a group is joined. Succinyl(4-O-cholesteryl) = CC(C)CCC[C@@H](C)[C@H]1CC[C@H]2[C@@H]3CC=C4C[C@@H](OC(=O)CCC(=O)*)CC[C@]4(C)[C@H]3CC[C@]12C
# Legend:
# [1] = Cytotoxicity test in HEp-2 cells (CCK8 cell viability); type: cell-based; conditions: human; HEp-2 cells, CCK8, 1 day; read-out: CC50
# Summary of the method: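 HEp-2 cells seeded at 30,000/well, cultured overnight at 37° C./5% CO2, then exposed to diluted compound for 1 day in 0.5% DMSO. Viability read by CCK8, normalised to untreated-cell and medium-only controls; CC50 from four-parameter variable-slope fit.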
# [2] = molecular target: T1, hPIV-N51 (139-189) (Human parainfluenza 3 virus, UniProt P06828); test: SPR affinity to hPIV-N51 coupled on CM5 chip; type: binding
# T1 construct: hPIV-N51 (139-189)
# [3] = test system: hMPV A2; type: cell-based; conditions: Vero cells, plaque reduction
# Summary of the method: (§1)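 Plaque reduction in Vero cells (40000/well), 8 concentrations in duplicate; compound pre-mixed with ~200 PFU virus 1 h at 33° C, adsorbed 2 h at 37° C, then overlay with compound, 0.8% CMC, 5 μg/ml trypsin, 0.5% DMSO for 1 day at 33° C. Plaques immunostained (TrueBlue) and counted; EC50 by four-parameter fit.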
# [4] = test system: hMPV B1; type: cell-based; conditions: Vero cells, plaque reduction
# Summary of the method: as §1
# T1 sequence (P06828 139-189): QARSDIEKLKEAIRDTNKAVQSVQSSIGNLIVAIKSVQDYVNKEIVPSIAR
Compound,CC50 at 1 day [1] [nM],Kd [2] [nM],EC50 [3] [nM],EC50 [4] [nM]
CC[C@H](C)[C@H](NC(=O)[C@H](CCCCN)NC(=O)[C@H](CCCCN)NC(=O)[C@H](CC(C)C)NC(=O)[C@H](CO)NC(=O)[C@H](CCC(=O)O)NC(=O)[C@H](CCC(=O)O)NC(=O)[C@@H](NC(=O)[C@H](CCCCN)NC(=O)[C@H](CCCCN)NC(=O)[C@H](CC(N)=O)NC(=O)[C@@H](NC(=O)[C@H](CCC(=O)O)NC(=O)[C@H](CCC(=O)O)NC(=O)[C@@H](NC(=O)[C@H](CCCCN)NC(=O)[C@H](CCCCN)NC(=O)[C@H](CC(=O)O)NC(=O)[C@H](Cc1ccccc1)NC(=O)[C@H](CCC(=O)O)NC(=O)[C@H](CC(=O)O)NC(=O)[C@H](Cc1c[nH]c2ccccc12)NC(C)=O)[C@@H](C)CC)C(C)C)[C@@H](C)CC)C(=O)N[C@@H](CCC(=O)O)C(=O)N[C@@H](CCC(=O)O)C(=O)N[C@@H](CO)C(=O)N[C@@H](CC(=O)O)C(=O)N[C@@H](CCCCN)C(=O)N[C@@H](CCCCN)C(=O)N[C@@H](CC(C)C)C(=O)N[C@@H](Cc1c[nH]cn1)C(=O)N[C@@H](CC(N)=O)C(=O)N[C@H](C(=O)N[C@@H](CCC(=O)O)C(=O)N[C@@H](C)C(=O)N[C@@H](C)C(=O)N[C@@H](C)C(=O)N[C@@H](CCCCN)C(=O)N[C@@H](CCCCNC(=O)CCC(=O)O[C@H]1CC[C@@]2(C)C(=CC[C@H]3[C@@H]4CC[C@H]([C@H](C)CCCC(C)C)[C@@]4(C)CC[C@@H]32)C1)C(N)=O)C(C)C [Compound 44] (Ac-WDEFDKKIEEVNKKIEESLKKIEESDKKLHNVEAAAKK(Succinyl(4-O-cholesteryl))-NH2),26500,6860,14.6,6.6
CC[C@H](C)[C@H](NC(=O)[C@H](CO)NC(=O)[C@H](C)NC(=O)[C@H](CC(=O)O)NC(=O)[C@H](Cc1ccccc1)NC(=O)[C@H](CCC(=O)O)NC(=O)[C@H](CC(=O)O)NC(=O)[C@H](Cc1c[nH]c2ccccc12)NC(C)=O)C(=O)N[C@@H](CO)C(=O)N[C@@H](CCC(N)=O)C(=O)N[C@H](C(=O)N[C@@H](CC(N)=O)C(=O)N[C@@H](CCC(=O)O)C(=O)N[C@@H](CCCCN)C(=O)N[C@H](C(=O)N[C@@H](CC(N)=O)C(=O)N[C@@H](CCC(N)=O)C(=O)N[C@@H](CO)C(=O)N[C@@H](CC(C)C)C(=O)N[C@@H](CCC(=O)O)C(=O)N[C@@H](CCC(=O)O)C(=O)N[C@H](C(=O)N[C@@H](CCCNC(=N)N)C(=O)N[C@@H](CCCCN)C(=O)N[C@@H](CO)C(=O)N[C@@H](CC(=O)O)C(=O)N[C@@H](CCC(=O)O)C(=O)N[C@@H](CC(C)C)C(=O)N[C@@H](CC(C)C)C(=O)N[C@@H](Cc1c[nH]cn1)C(=O)N[C@@H](CC(N)=O)C(=O)N[C@@H](CCC(=O)O)C(=O)N[C@@H](C)C(=O)N[C@@H](C)C(=O)N[C@@H](C)C(=O)N[C@@H](CCCCN)C(=O)N[C@@H](CCCCNC(=O)CCC(=O)O[C@H]1CC[C@@]2(C)C(=CC[C@H]3[C@@H]4CC[C@H]([C@H](C)CCCC(C)C)[C@@]4(C)CC[C@@H]32)C1)C(N)=O)[C@@H](C)CC)[C@@H](C)CC)C(C)C [Compound 45] (Ac-WDEFDASISQVNEKINQSLEEIRKSDELLHNEAAAKK(Succinyl(4-O-cholesteryl))-NH2),9940,179000,200,13.1
CC[C@H](C)[C@H](NC(=O)[C@H](CCCCN)NC(=O)[C@H](CCCCN)NC(=O)[C@H](CC(C)C)NC(=O)[C@H](CO)NC(=O)[C@H](CCC(N)=O)NC(=O)[C@H](CC(N)=O)NC(=O)[C@@H](NC(=O)[C@H](CCCCN)NC(=O)[C@H](CCCCN)NC(=O)[C@H](CC(=O)O)NC(=O)[C@H](Cc1ccccc1)NC(=O)[C@H](CCC(=O)O)NC(=O)[C@@H](NC(=O)[C@H](CCCCN)NC(=O)[C@H](CCCCN)NC(=O)[C@H](CC(N)=O)NC(=O)[C@@H](NC(=O)[C@H](CC(C)C)NC(=O)[C@H](CCC(=O)O)NC(=O)[C@H](CC(=O)O)NC(=O)[C@H](CO)NC(C)=O)C(C)C)[C@@H](C)CC)[C@@H](C)CC)C(=O)N[C@@H](CCC(=O)O)C(=O)N[C@@H](CCC(=O)O)C(=O)N[C@@H](CO)C(=O)N[C@@H](CC(=O)O)C(=O)N[C@@H](CCCCN)C(=O)N[C@@H](CCCCN)C(=O)N[C@@H](CCCCN)C(=O)N[C@@H](CC(C)C)C(=O)N[C@@H](CCC(=O)O)C(=O)N[C@@H](C)C(=O)N[C@@H](C)C(=O)N[C@@H](C)C(=O)N[C@@H](CCCCN)C(=O)N[C@@H](CCCCN)C(N)=O [Compound 51] (Ac-SDELVNKKIEFDKKINQSLKKIEESDKKKLEAAAKK-NH2),3200,51.4,18.8,3.82
Ac-FDEEISQVNEKINQSLAFIRKSDELLHNVNAGKSTTEAAAKK(Succinyl(4-O-cholesteryl))-NH2 [Compound 26],> 100000,2580,103,2.85
Ac-LVKKIDEFDASISQVNEKINQSLEEIRKSDELLHNVGSGSGK(Succinyl(4-O-cholesteryl))-NH2 [Compound 29],15000,1730,41.6,11.1
Ac-WDEFDASISQVNEKINQSLEEIRKSDELLHNVNAGLGSGSGK(Succinyl(4-O-cholesteryl))-NH2 [Compound 27],18400,812,78.3,10.5
Ac-WDEFDASISQVNEKINQSLEEIRKSDELLHNVNALEAAAKK(Succinyl(4-O-cholesteryl))-NH2 [Compound 38],10900,24500,128,16.6
